Where two headings read alike, the source gives them in different places. Where a SMILES comes first, the peptide text is derived from it. Bridges are numbered along the chain shown (N, C = ends). [ ]: non-standard residue; d: D form. Tle = CC(C)(C)[C@H](N)C(=O)O; dDab = NCC[C@@H](N)C(=O)O; Dab = NCC[C@H](N)C(=O)O; Dap = NC[C@H](N)C(=O)O
Assays:
[1] = system: human red blood cells (hRBC); assay: Hemolysis: hemolytic activity at 100 μg/mL, 1 h at 37° C.
Method in brief: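 Peptides at 100 μg/mL incubated with washed 20% (v/v) human erythrocytes (~0.9×10^9 cells/mL) for 1 h at 37 °C with shaking. Released hemoglobin read at OD 540 nm in supernatant; 0% and 100% lysis from PBS/0.001% acetic acid and 2.5% Triton X-100.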

[2] = system: Acinetobacter baumannii DSM 30008; format: cell-based
Method in brief: (§1)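 Peptide MICs were determined by NCCLS broth microdilution in cation-adjusted Mueller-Hinton II broth. Inoculum was about 10^6 CFU/mL, matched to 0.5 McFarland, with peptides in two-fold serial dilutions. The broth contained Polysorbate 80 at 0.002% final concentration.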

[3] = system: Escherichia coli ATCC 25922; format: cell-based
Method in brief: as §1

[4] = system: Klebsiella pneumoniae ATCC 13883; format: cell-based
Method in brief: as §1

[5] = Mueller-Hinton II broth, 18-20 hours at 35° C.

Structure (SMILES)	Hemolysis at 100 μg/mL ([1]; red cells of human, 1 h, 100)	Acinetobacter baumannii DSM 30008 MIC ([2]; DSM 30008)	Escherichia coli ATCC 25922 MIC ([3]; ATCC 25922)	Klebsiella pneumoniae ATCC 13883 MIC ([4]; ATCC 13883)	Hemolysis at 100 μg/mL ([1]; 100 μg/mL, 20% hRBC, 1 h at 37° C.)	Acinetobacter baumannii DSM 30008 MIC [2, 5]	Escherichia coli ATCC 25922 MIC [3, 5]	Klebsiella pneumoniae ATCC 13883 MIC [4, 5]
CC(C)[C@@H]1NC(=O)[C@H](Cc2ccc(O)cc2)NC(=O)[C@@H](C)NC(=O)[C@H](CO)NC(=O)[C@@H]2CC(=O)NCC[C@H](NC1=O)C(=O)N[C@@H](Cc1ccc(O)cc1)C(=O)N[C@@H](CCN)C(=O)N[C@@H](CN)C(=O)N[C@H](CCN)C(=O)N[C@@H](CCN)C(=O)N[C@@H](Cc1c[nH]c3ccccc13)C(=O)N[C@@H](CN)C(=O)N[C@@H](C(C)(C)C)C(=O)N2 [Example 31, cyclo(-Val-Dab-Tyr-Dab-Dap-^DDab-Dab-Trp-Dap-tBuGly-Asp-Ser-^DAla-Tyr-)] (cyclo(DS[dA]YV[Dab]Y[Dab][Dap][dDab][Dab]W[Dap][Tle]); lactam 1-6)	1%	4 µg/mL	1 µg/mL	1 µg/mL				
CC(C)C[C@@H]1NC(=O)[C@H](CCCNC(=N)N)NC(=O)[C@@H](CCN)NC(=O)[C@H](Cc2ccc(O)cc2)NC(=O)[C@@H]2CSSC[C@H](NC1=O)C(=O)N[C@@H](Cc1ccc(O)cc1)C(=O)N[C@@H](C(C)C)C(=O)N[C@@H](CCCN)C(=O)N[C@H](CCN)C(=O)N[C@@H](CCN)C(=O)N[C@@H](Cc1c[nH]c3ccccc13)C(=O)N[C@@H](Cc1ccc(O)cc1)C(=O)N[C@@H](Cc1ccc(O)cc1)C(=O)N2 [Example 22, cyclo(-Leu-Cys-Tyr-Val-Orn-^DDab-Dab-Trp-Tyr-Tyr-Cys-Tyr-^DDab-Arg-)] (HELM PEPTIDE1{C.Y.V.[Orn].[NCC[C@@H](N[*:1])C(=O)[*:2]].[Dab].W.Y.Y.C.Y.[NCC[C@@H](N[*:1])C(=O)[*:2]].R.L}$PEPTIDE1,PEPTIDE1,1:R3-10:R3|PEPTIDE1,PEPTIDE1,1:R1-14:R2$$$V2.0)	6%	0.5 µg/mL	0.5 µg/mL	1 µg/mL				
CC(C)C[C@@H]1NC(=O)[C@H](CCN)NC(=O)[C@@H](CCN)NC(=O)[C@H](CO)NC(=O)[C@@H]2CSSC[C@H](NC1=O)C(=O)N[C@@H](Cc1ccc(O)cc1)C(=O)N[C@@H](CC(N)=O)C(=O)N[C@@H](CCCN)C(=O)N[C@H](CCN)C(=O)N[C@@H](CCN)C(=O)N[C@@H](Cc1c[nH]c3ccccc13)C(=O)N[C@@H](CO)C(=O)N[C@@H](Cc1ccc(O)cc1)C(=O)N2 [Example 8, cyclo(-Leu-Cys-Tyr-Asn-Orn-^DDab-Dab-Trp-Ser-Tyr-Cys-Ser-^DDab-Dab-)] (HELM PEPTIDE1{C.S.[NCC[C@@H](N[*:1])C(=O)[*:2]].[Dab].L.C.Y.N.[Orn].[NCC[C@@H](N[*:1])C(=O)[*:2]].[Dab].W.S.Y}$PEPTIDE1,PEPTIDE1,1:R3-6:R3|PEPTIDE1,PEPTIDE1,1:R1-14:R2$$$V2.0)	1%	1.5 µg/mL	1 µg/mL	0.5 µg/mL				
CC(C)[C@@H]1NC(=O)[C@@H]2CSSC[C@H](NC(=O)[C@H](Cc3ccc(O)cc3)NC(=O)[C@H]([C@@H](C)O)NC(=O)[C@H](Cc3c[nH]c4ccccc34)NC(=O)[C@H](CCN)NC(=O)[C@@H](CCN)NC(=O)[C@H](CCCN)NC(=O)[C@H]([C@@H](C)O)NC1=O)C(=O)N[C@@H](CCN)C(=O)N[C@H](CCN)C(=O)N[C@@H](CCCNC(=N)N)C(=O)N[C@@H](Cc1ccccc1)C(=O)N2 [Example 24, cyclo(-Phe-Cys-Val-Thr-Orn-^DDab-Dab-Trp-Thr-Tyr-Cys-Dab-^DDab-Arg-)] (HELM PEPTIDE1{C.[Dab].[NCC[C@@H](N[*:1])C(=O)[*:2]].R.F.C.V.T.[Orn].[NCC[C@@H](N[*:1])C(=O)[*:2]].[Dab].W.T.Y}$PEPTIDE1,PEPTIDE1,1:R3-6:R3|PEPTIDE1,PEPTIDE1,1:R1-14:R2$$$V2.0)					0%	2 µg/mL	1 µg/mL	2 µg/mL
CC(C)C[C@@H]1NC(=O)[C@H](CCCNC(=N)N)NC(=O)[C@@H](CCN)NC(=O)[C@H](C(C)C)NC(=O)[C@H](C)NC(=O)[C@H](C(C)C)NC(=O)[C@@H]2CSSC[C@H](NC(=O)[C@H](Cc3ccc(O)cc3)NC(=O)[C@H](CO)NC1=O)C(=O)N[C@@H](CCCN)C(=O)NCC(=O)N[C@@H](CCN)C(=O)N[C@@H](Cc1c[nH]c3ccccc13)C(=O)N2 [Example 40, cyclo(-Leu-Ser-Tyr-Cys-Orn-Gly-Dab-Trp-Cys-Val-Ala-Val-^DDab-Arg-)] (HELM PEPTIDE1{A.V.[NCC[C@@H](N[*:1])C(=O)[*:2]].R.L.S.Y.C.[Orn].G.[Dab].W.C.V}$PEPTIDE1,PEPTIDE1,8:R3-13:R3|PEPTIDE1,PEPTIDE1,1:R1-14:R2$$$V2.0)	4%	4 µg/mL	4 µg/mL	2 µg/mL				
CC(C)[C@@H]1NC(=O)[C@H](C)NC(=O)[C@@H](C)NC(=O)[C@H](CO)NC(=O)[C@@H]2CC(=O)NCC[C@H](NC1=O)C(=O)N[C@@H](Cc1ccc(O)cc1)C(=O)N[C@@H](CCN)C(=O)N[C@@H](CCN)C(=O)N[C@H](CCN)C(=O)N[C@@H](CCN)C(=O)N[C@@H](Cc1c[nH]c3ccccc13)C(=O)N[C@@H](CCN)C(=O)N[C@@H](C(C)(C)C)C(=O)N2 [Example 30, cyclo(-Val-Dab-Tyr-Dab-Dab-^DDab-Dab-Trp-Dab-tBuGly-Asp-Ser-^DAla-Ala-)] (HELM PEPTIDE1{A.V.[Dab].Y.[Dab].[Dab].[NCC[C@@H](N[*:1])C(=O)[*:2]].[Dab].W.[Dab].[CC(C)(C)[C@H](N[*:1])C(=O)[*:2]].D.S.[dA]}$PEPTIDE1,PEPTIDE1,3:R3-12:R3|PEPTIDE1,PEPTIDE1,1:R1-14:R2$$$V2.0)	1%	8 µg/mL	1 µg/mL	2 µg/mL				

Reference: patent US11753446B2, “Beta-hairpin peptidomimetics” (POLYPHOR AG, priority 2014, dated 2023)
